# Measurements as given in patent publication US10729130B2, “Nematicidal compositions and methods of using them” (Eden Research plc, priority 2004, dated 2020).
# How the values were obtained:
# Assay type in all cases: physicochemical
# [1] = Maximal citral and L-carvone loading in Baker's yeast particles (free terpene score); set-up: key to Free Terpene: +: “free terpene” refers to the visible presence of terpene in the centrifuged reaction mixture; −: The absence of free terpene indicates complete absorption of the terpene by the particles; conditions: for Free Terpene: 500 μl 20 mg/ml YP, overnight room temperature
# Description: Samples were centrifuged at 14,000×g for 10 minutes and the appearance of free terpene floating on the aqueous layer was scored. The expression “free terpene” refers to the visible presence of terpene in the centrifuged reaction mixture. The absence of free terpene indicates complete absorption of the terpene by the particles. The highest volume of terpene absorbed by the particles, as evidenced by the absence of free terpene, was recorded as the maximal volume of absorbed terpene emulsion.
# [2] = Kinetics of terpene loading into various particles at room temperature or 37° C.; set-up: key: +: “free terpene” refers to the visible presence of terpene in the centrifuged reaction mixture; −: The absence of free terpene indicates complete absorption of the terpene by the particles
# Description: 1% Tween-80 solution was prepared by sonicating 1 ml 10% Tween-80 in 10 ml water. • Baker's YP was prepared by mixing 5 g of bakers YP in 20 ml 1% Tween-80. • Nutrex™ YGP suspension was prepared by mixing 2 g Nutrex™ YGP in 20 ml 1% Tween-80. • SAF Mannan™ suspension was prepared by mixing 2 g SAF Mannan™ in 20 ml 1% Tween-80.
# The reactions were incubated for 1, 3, 6, 9 and 24 hours at room temperature or 37° C. After incubation samples were centrifuged at 14,000×g for 10 minutes and the appearance of free terpene floating on the aqueous layer was scored. The highest volume of terpene absorbed by the particles as evidenced by the absence of free terpene was recorded as the volume of absorbed terpene emulsion. Colour of the encapsulated pellet was scored at 24 hours.
# [3] = Maximal terpene loading at high Baker's yeast particle levels (free terpene score); set-up: key to Free Terpene: +: “free terpene” refers to the visible presence of terpene in the centrifuged reaction mixture; −: The absence of free terpene indicates complete absorption of the terpene by the particles; conditions: for Free Terpene: 500 μl 250 mg/ml YP
# Description: Samples were centrifuged at 14,000×g for 10 minutes and the appearance of free terpene floating on the aqueous layer was scored. The expression “free terpene” refers to the visible presence of terpene in the centrifuged reaction mixture. The absence of free terpene indicates complete absorption of the terpene by the YP. The highest volume of terpene absorbed by the YP, as evidenced by the absence of free terpene, was recorded as the maximal volume of absorbed terpene emulsion.
# [4] = SAF Mannan loading of different terpenes and terpene mixtures; set-up: key to Free Terpene: +: “free terpene” refers to the visible presence of terpene in the centrifuged reaction mixture; −: The absence of free terpene indicates complete absorption of the terpene by the particles; conditions: for Free Terpene: SAF Mannan 500 μl (250 mg/ml), overnight, room temperature
# Description: Increasing volumes of terpene emulsion were mixed with 250 mg/ml Baker's YP or 250 mg/ml SAF Mannan™ overnight at room temperature as shown in Tables 27 and 28. Samples were centrifuged at 14,000×g for 10 minutes and the appearance of free terpene floating on the aqueous layer was scored. The highest volume of terpene emulsion absorbed by Baker's YP or SAF Mannan™ as evidenced by the absence of free terpene was recorded as the volume of absorbed terpene emulsion. Colour of encapsulated terpenes in the pellet was recorded.
# Percentage loaded represents a ratio of the amount of terpene loaded to the amount of particle present (weight for weight).
substance,measurement,setting,value
L-carvone,terpene emulsion absorbed and encapsulated per 10 mg of YP,[1]; Baker's YP 20 mg/ml,at least 16.5 μl
same,Free Terpene,"[1]; emulsion 0.5 μl, 10% Tween-80 500 μl",−
same,Free Terpene,"[1]; emulsion 1.65 μl, 10% Tween-80 500 μl",−
same,Free Terpene,"[1]; emulsion 5 μl, 10% Tween-80 495 μl",−
same,Free Terpene,"[1]; emulsion 16.5 μl, 10% Tween-80 483.5 μl",−
same,Free Terpene,"[1]; emulsion 50 μl, 10% Tween-80 450 μl",+
same,Free Terpene,"[1]; emulsion 165 μl, 10% Tween-80 335 μl",+
same,Free Terpene,"[1]; emulsion 500 μl, no Tween-80",+
same,Free Terpene (hr),"[2]; 37 ° C., Bakers 250 mg/ml, emulsion 788 μl L-carvone or 525 μl Citral, 1 hr",+
same,Free Terpene (hr),"[2]; 37 ° C., Bakers 250 mg/ml, emulsion 788 μl L-carvone or 525 μl Citral, 3 hr",−
same,Free Terpene (hr),"[2]; 37 ° C., Bakers 250 mg/ml, emulsion 788 μl L-carvone or 525 μl Citral, 6 hr",−
same,Free Terpene (hr),"[2]; 37 ° C., Bakers 250 mg/ml, emulsion 788 μl L-carvone or 525 μl Citral, 9 hr",−
same,Free Terpene (hr),"[2]; 37 ° C., Bakers 250 mg/ml, emulsion 788 μl L-carvone or 525 μl Citral, 24 hr",−
same,Free Terpene (hr),"[2]; 37 ° C., Nutrex 100 mg/ml, emulsion 1050 μl L-carvone or 788 μl Citral, 1 hr",+
same,Free Terpene (hr),"[2]; 37 ° C., Nutrex 100 mg/ml, emulsion 1050 μl L-carvone or 788 μl Citral, 3 hr",−
same,Free Terpene (hr),"[2]; 37 ° C., Nutrex 100 mg/ml, emulsion 1050 μl L-carvone or 788 μl Citral, 6 hr",−
same,Free Terpene (hr),"[2]; 37 ° C., Nutrex 100 mg/ml, emulsion 1050 μl L-carvone or 788 μl Citral, 9 hr",−
same,Free Terpene (hr),"[2]; 37 ° C., Nutrex 100 mg/ml, emulsion 1050 μl L-carvone or 788 μl Citral, 24 hr",−
same,Free Terpene (hr),"[2]; 37 ° C., SAF 100 mg/ml, emulsion 1050 μl L-carvone or 788 μl Citral, 1 hr",<+
same,Free Terpene (hr),"[2]; 37 ° C., SAF 100 mg/ml, emulsion 1050 μl L-carvone or 788 μl Citral, 3 hr",−
same,Free Terpene (hr),"[2]; 37 ° C., SAF 100 mg/ml, emulsion 1050 μl L-carvone or 788 μl Citral, 6 hr",−
same,Free Terpene (hr),"[2]; 37 ° C., SAF 100 mg/ml, emulsion 1050 μl L-carvone or 788 μl Citral, 9 hr",−
same,Free Terpene (hr),"[2]; 37 ° C., SAF 100 mg/ml, emulsion 1050 μl L-carvone or 788 μl Citral, 24 hr",−
same,Free Terpene (hr),"[2]; Rt, Bakers 250 mg/ml, emulsion 788 μl L-carvone or 525 μl Citral, 1 hr",+
same,Free Terpene (hr),"[2]; Rt, Bakers 250 mg/ml, emulsion 788 μl L-carvone or 525 μl Citral, 3 hr",−
same,Free Terpene (hr),"[2]; Rt, Bakers 250 mg/ml, emulsion 788 μl L-carvone or 525 μl Citral, 6 hr",−
same,Free Terpene (hr),"[2]; Rt, Bakers 250 mg/ml, emulsion 788 μl L-carvone or 525 μl Citral, 9 hr",−
same,Free Terpene (hr),"[2]; Rt, Bakers 250 mg/ml, emulsion 788 μl L-carvone or 525 μl Citral, 24 hr",−
same,Free Terpene (hr),"[2]; Rt, Nutrex 100 mg/ml, emulsion 1050 μl L-carvone or 788 μl Citral, 1 hr",+
same,Free Terpene (hr),"[2]; Rt, Nutrex 100 mg/ml, emulsion 1050 μl L-carvone or 788 μl Citral, 3 hr",−
same,Free Terpene (hr),"[2]; Rt, Nutrex 100 mg/ml, emulsion 1050 μl L-carvone or 788 μl Citral, 6 hr",−
same,Free Terpene (hr),"[2]; Rt, Nutrex 100 mg/ml, emulsion 1050 μl L-carvone or 788 μl Citral, 9 hr",−
same,Free Terpene (hr),"[2]; Rt, Nutrex 100 mg/ml, emulsion 1050 μl L-carvone or 788 μl Citral, 24 hr",−
same,Free Terpene (hr),"[2]; Rt, SAF 100 mg/ml, emulsion 1050 μl L-carvone or 788 μl Citral, 1 hr",<+
same,Free Terpene (hr),"[2]; Rt, SAF 100 mg/ml, emulsion 1050 μl L-carvone or 788 μl Citral, 3 hr",−
same,Free Terpene (hr),"[2]; Rt, SAF 100 mg/ml, emulsion 1050 μl L-carvone or 788 μl Citral, 6 hr",−
same,Free Terpene (hr),"[2]; Rt, SAF 100 mg/ml, emulsion 1050 μl L-carvone or 788 μl Citral, 9 hr",−
same,Free Terpene (hr),"[2]; Rt, SAF 100 mg/ml, emulsion 1050 μl L-carvone or 788 μl Citral, 24 hr",−
same,terpene emulsion absorbed and encapsulated per 125 mg of YP,[3]; Baker's YP 250 mg/ml,at least 112.5 μl
same,Free Terpene,"[3]; emulsion 15 μl, 1% Tween-80 485 μl",−
same,Free Terpene,"[3]; emulsion 37.5 μl, 1% Tween-80 462.5 μl",−
same,Free Terpene,"[3]; emulsion 75 μl, 1% Tween-80 425 μl",−
same,Free Terpene,"[3]; emulsion 112.5 μl, 1% Tween-80 387.5 μl",−
same,Free Terpene,"[3]; emulsion 150 μl, 1% Tween-80 350 μl",Sl+
same,Free Terpene,"[3]; emulsion 225 μl, 1% Tween-80 275 μl",+
same,Free Terpene,"[3]; emulsion 450 μl, 1% Tween-80 50 μl",+
same,Free Terpene,"[4]; terpene emulsion vol 15, 1% Tween-80 485 μl",−
same,Free Terpene,"[4]; terpene emulsion vol 37.5, 1% Tween-80 462.5 μl",−
same,Free Terpene,"[4]; terpene emulsion vol 75, 1% Tween-80 425 μl",−
same,Free Terpene,"[4]; terpene emulsion vol 112.5, 1% Tween-80 387.5 μl",−
same,Free Terpene,"[4]; terpene emulsion vol 450, 1% Tween-80 50 μl",+
same,Vol. loaded (maximal terpene loading in SAF Mannan),"[4]; approximate maximal loading, volume of terpene emulsion absorbed by SAF Mannan",112.5 µL
same,% Loaded w/w (maximal terpene loading in SAF Mannan),[4]; ratio of amount of terpene loaded to amount of particle present (weight for weight),100% w/w
